Article PMC11249953, “c-KIT inhibitors reduce pathology and improve behavior in the Tg(SwDI) model of Alzheimer’s disease” (Life Science Alliance, 2024)

Experiments:
KIT = biological target: T1, KIT (Homo sapiens, UniProt P10721); experiment: KINOMEscan competition binding, KIT; conditions: 10 µM compound; for remaining binding at 10 µM: lower = stronger binding, read-out: KIT %Ctrl @ 10000nM (POC)
T1 construct: DNA label for qPCR read-out (T7 phage fusion or DNA tag); purchased Eurofins DiscoverX Corporation; host or cells: T7 phage in E. coli (BL21-derived) or HEK-293
T1 sequence (P10721 26-976): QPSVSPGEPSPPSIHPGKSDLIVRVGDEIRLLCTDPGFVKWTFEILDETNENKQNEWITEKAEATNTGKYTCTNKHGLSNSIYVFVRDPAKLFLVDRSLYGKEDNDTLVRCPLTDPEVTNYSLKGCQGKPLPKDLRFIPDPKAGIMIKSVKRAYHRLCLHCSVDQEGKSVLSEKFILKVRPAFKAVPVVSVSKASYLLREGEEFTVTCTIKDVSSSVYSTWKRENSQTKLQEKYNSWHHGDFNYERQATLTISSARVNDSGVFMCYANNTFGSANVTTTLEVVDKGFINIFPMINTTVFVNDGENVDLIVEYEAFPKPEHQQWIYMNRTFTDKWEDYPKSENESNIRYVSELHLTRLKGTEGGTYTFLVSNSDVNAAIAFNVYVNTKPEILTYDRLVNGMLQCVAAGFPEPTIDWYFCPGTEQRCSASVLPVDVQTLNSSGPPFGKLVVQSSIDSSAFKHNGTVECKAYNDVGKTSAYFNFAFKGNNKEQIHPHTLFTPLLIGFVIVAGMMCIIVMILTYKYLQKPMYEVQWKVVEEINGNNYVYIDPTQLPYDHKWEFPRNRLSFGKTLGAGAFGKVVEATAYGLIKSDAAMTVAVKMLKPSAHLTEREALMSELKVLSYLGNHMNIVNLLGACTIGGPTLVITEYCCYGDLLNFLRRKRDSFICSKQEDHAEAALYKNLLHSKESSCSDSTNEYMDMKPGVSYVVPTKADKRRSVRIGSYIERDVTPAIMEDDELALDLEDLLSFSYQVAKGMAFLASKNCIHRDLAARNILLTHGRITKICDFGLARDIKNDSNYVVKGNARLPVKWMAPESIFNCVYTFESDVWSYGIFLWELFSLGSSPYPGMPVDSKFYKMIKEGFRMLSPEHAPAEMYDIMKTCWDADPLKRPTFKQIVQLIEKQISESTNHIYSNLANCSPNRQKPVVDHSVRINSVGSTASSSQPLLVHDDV
Description: (§1) The KINOMEscan screening platform (Eurofins DiscoverX Corporation) was performed using active site-directed competition binding assay to quantitatively measure interactions between BK40143 and BK40197 and more than 450 human kinases and disease relevant mutant variants. […] Screening “hits” are identified by measuring the amount of kinase captured in test (BK40143 and BK40197) versus control samples by using a quantitative and ultra-sensitive qRT-PCR method that detects the associated DNA label. BK40143 and BK40197 were screened at 10 µM concentration, and results for primary screen binding interactions were reported as “% Ctrl” (POC), where lower numbers indicate stronger hits and calculated as follows: [test compound signal−positive control signal/negative control signal−positive control signal]×100
(§2) negative control = DMSO (100% Ctrl)
(§3) positive control = control compound (0% Ctrl)
(§4) Based on screening data from of profiled compounds, a proportional relationship between primary screening results and corresponding compound/target affinities can be described as binding constants (Kd values) for the indicated ranges of POC values with tighter binding (higher affinity) interactions associated with lower POC values and weaker binding (lower affinity) associated with higher POC values. Briefly, kinase-tagged T7 phage strains were grown in parallel in 24-well blocks in an E. coli host derived from the BL21 strain. E. coli were grown to log-phase and infected with T7 phage from a frozen stock (multiplicity of infection = 0.4) and incubated with shaking at 32°C until lysis (90–150 min). The lysates were centrifuged (6,000g) and filtered (0.2 μm) to remove cell debris. The remaining kinases were produced in HEK-293 cells and subsequently tagged with DNA for qRT-PCR detection. Streptavidin-coated magnetic beads were treated with biotinylated small molecule ligands for 30 min at RT to generate affinity resins for kinase assays. The liganded beads were blocked with excess biotin and washed with blocking buffer (1% BSA, 0.05% Tween 20, 1 mM DTT; SeaBlock [Pierce]) to remove unbound ligand and to reduce non-specific phage binding. Binding reactions were assembled by combining kinases, liganded affinity beads, and test compounds in 1x binding buffer (20% 0.17x PBS, 0.05% Tween 20, 6 mM DTT; SeaBlock). Test compounds were prepared as 100x stocks in 100% DMSO and directly diluted into the assay. All reactions were performed in polypropylene 384-well plates in a final volume of 0.02 ml. The assay plates were incubated at RT with shaking for 1 h and the affinity beads were washed with wash buffer (1x PBS, 0.05% Tween 20). […] The kinase concentration in the eluates was measured by qRT-PCR.

KIT (V559D) = biological target: T2, KIT (V559D) (Homo sapiens, UniProt P10721, V559D); experiment: KINOMEscan competition binding, KIT (V559D); conditions: 10 µM compound; for remaining binding at 10 µM: lower = stronger binding, read-out: KIT (V559D) %Ctrl @ 10000nM (POC)
T2 construct: DNA label for qPCR read-out (T7 phage fusion or DNA tag); purchased Eurofins DiscoverX Corporation; host or cells: T7 phage in E. coli (BL21-derived) or HEK-293
T2 sequence (P10721 26-976 V559D): as the sequence (P10721 26-976) above, with V534D counted along it
Description: as §1, §2, §3, §4

LCK = biological target: T3, LCK (Homo sapiens, UniProt P06239); experiment: KINOMEscan competition binding, LCK; conditions: 10 µM compound; for remaining binding at 10 µM: lower = stronger binding, read-out: LCK %Ctrl @ 10000nM (POC)
T3 construct: DNA label for qPCR read-out (T7 phage fusion or DNA tag); purchased Eurofins DiscoverX Corporation; host or cells: T7 phage in E. coli (BL21-derived) or HEK-293
T3 sequence (P06239 whole entry, the tested form may be a part): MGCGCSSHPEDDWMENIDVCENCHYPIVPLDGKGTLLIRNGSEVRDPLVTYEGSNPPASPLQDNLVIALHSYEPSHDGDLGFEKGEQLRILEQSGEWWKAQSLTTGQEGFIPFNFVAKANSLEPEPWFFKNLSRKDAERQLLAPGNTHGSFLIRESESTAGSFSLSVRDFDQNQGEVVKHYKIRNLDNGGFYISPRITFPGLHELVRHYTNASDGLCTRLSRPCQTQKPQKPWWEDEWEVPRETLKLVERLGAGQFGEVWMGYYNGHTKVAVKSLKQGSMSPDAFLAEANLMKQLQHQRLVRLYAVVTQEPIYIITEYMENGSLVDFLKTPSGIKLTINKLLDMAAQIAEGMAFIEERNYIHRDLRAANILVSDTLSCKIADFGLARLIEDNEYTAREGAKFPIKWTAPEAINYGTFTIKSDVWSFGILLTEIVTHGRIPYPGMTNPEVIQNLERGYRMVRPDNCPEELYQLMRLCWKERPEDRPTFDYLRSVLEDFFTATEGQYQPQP
Description: as §1, §2, §3, §4

FYN = biological target: T4, FYN (Homo sapiens, UniProt P06241); experiment: KINOMEscan competition binding, FYN; conditions: 10 µM compound; for remaining binding at 10 µM: lower = stronger binding, read-out: FYN %Ctrl @ 10000nM
T4 construct: DNA label for qPCR read-out (T7 phage fusion or DNA tag); purchased Eurofins DiscoverX Corporation; host or cells: T7 phage in E. coli (BL21-derived) or HEK-293
T4 sequence (P06241 whole entry, the tested form may be a part): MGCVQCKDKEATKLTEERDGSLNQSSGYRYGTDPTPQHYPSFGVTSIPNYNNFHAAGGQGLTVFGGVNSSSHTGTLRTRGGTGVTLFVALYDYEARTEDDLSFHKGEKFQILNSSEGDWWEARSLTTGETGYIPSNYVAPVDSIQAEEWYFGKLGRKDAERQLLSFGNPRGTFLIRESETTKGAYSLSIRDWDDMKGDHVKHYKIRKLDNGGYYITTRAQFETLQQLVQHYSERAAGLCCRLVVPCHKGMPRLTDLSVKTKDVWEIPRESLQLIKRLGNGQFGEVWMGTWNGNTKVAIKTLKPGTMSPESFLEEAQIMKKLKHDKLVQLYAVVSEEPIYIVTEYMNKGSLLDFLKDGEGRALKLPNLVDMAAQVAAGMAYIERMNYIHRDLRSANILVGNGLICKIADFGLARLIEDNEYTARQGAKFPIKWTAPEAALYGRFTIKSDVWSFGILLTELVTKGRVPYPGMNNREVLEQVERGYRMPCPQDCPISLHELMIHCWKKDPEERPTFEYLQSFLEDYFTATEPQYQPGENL
Description: as §1, §2, §3, §4

PIP5K1A = biological target: T5, PIP5K1A (Homo sapiens, UniProt Q99755); experiment: KINOMEscan competition binding, PIP5K1A; conditions: 10 µM compound; for remaining binding at 10 µM: lower = stronger binding, read-out: PIP5K1A %Ctrl @ 10000nM (POC)
T5 construct: DNA label for qPCR read-out (T7 phage fusion or DNA tag); purchased Eurofins DiscoverX Corporation; host or cells: T7 phage in E. coli (BL21-derived) or HEK-293
T5 sequence (Q99755 whole entry, the tested form may be a part): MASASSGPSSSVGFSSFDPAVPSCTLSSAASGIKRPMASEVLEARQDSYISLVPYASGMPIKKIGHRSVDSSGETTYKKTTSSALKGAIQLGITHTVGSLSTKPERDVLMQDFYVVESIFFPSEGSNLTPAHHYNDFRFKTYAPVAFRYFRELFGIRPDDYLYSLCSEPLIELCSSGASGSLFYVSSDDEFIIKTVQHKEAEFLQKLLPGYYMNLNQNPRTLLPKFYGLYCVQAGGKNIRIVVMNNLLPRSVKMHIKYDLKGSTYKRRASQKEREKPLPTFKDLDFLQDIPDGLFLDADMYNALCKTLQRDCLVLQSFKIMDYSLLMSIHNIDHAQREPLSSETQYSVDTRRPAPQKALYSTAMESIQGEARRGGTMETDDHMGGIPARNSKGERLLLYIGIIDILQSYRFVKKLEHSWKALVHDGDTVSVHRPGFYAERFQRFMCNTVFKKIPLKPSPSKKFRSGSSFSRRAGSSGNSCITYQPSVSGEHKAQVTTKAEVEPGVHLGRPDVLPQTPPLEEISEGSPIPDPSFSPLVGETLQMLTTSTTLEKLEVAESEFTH
Description: as §1, §2, §3, §4

IRAK1 = biological target: T6, IRAK1 (Homo sapiens, UniProt P51617); experiment: KINOMEscan competition binding, IRAK1; conditions: 10 µM compound; for remaining binding at 10 µM: lower = stronger binding, read-out: IRAK1 %Ctrl @ 10000nM (POC)
T6 construct: DNA label for qPCR read-out (T7 phage fusion or DNA tag); purchased Eurofins DiscoverX Corporation; host or cells: T7 phage in E. coli (BL21-derived) or HEK-293
T6 sequence (P51617 whole entry, the tested form may be a part): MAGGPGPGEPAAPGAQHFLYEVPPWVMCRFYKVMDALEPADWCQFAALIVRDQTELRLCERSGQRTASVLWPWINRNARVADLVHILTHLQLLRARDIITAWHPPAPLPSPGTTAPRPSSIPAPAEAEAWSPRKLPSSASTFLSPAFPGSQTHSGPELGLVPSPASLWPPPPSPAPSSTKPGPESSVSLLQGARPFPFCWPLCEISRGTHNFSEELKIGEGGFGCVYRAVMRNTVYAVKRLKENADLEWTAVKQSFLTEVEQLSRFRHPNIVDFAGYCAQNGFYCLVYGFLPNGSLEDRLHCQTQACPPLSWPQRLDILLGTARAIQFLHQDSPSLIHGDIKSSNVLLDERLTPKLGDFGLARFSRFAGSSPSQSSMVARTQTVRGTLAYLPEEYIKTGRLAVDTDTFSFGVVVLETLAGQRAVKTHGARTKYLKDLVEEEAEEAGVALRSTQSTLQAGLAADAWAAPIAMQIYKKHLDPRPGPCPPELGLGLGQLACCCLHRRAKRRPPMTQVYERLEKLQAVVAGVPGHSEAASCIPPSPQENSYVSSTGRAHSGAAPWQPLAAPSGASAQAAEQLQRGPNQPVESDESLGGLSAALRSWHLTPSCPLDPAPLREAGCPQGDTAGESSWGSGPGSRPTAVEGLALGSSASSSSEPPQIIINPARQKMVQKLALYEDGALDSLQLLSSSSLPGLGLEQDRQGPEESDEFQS
Description: as §1, §2, §3, §4

[1] = tested on: amyloid-beta in TgAPP mice; experiment: Immunohistochemistry for amyloid-beta (6E10), hippocampus; format: in vivo, mouse; conditions: BK40143 5 mg/kg, BK40197 45 mg/kg, vs DMSO
Description: (§5) Staining for amyloid-beta and microglia was performed on left brain hemispheres collected from treated and untreated mice. Brains were cryoprotected with 30% sucrose and sectioned at 30 μm on a cryostat. Sections were then treated with an anti-amyloid beta (6E10, cat. #803001; BioLegend) or anti-IBA1 (cat. # 018-28523; Wako Chemicals) primary followed by either an AlexaFluor secondary (Thermo Fisher Scientific) and DAPI mounting medium (Vector Labs) or a biotinylated secondary and 3, 3′ diaminobenzidine chromogen substrate. Slides were imaged on either a Leica DMi8 light microscope or a Zeiss LSM 800 confocal microscope.

pTau = experiment: ELISA for pTau (S396) in brain lysates; format: in vivo, mouse; conditions: Tg4510 mice; vs DMSO
Description: All samples were analyzed in parallel using the same reagents. A total of 25 μl soluble protein was incubated overnight at 4°C with 25 μl of a mixed bead solution. After washing, samples were incubated with 25 μl detection antibody solution for 1.5 h at RT. Streptavidin–phycoerythrin (25 μl) was added to each well containing the 25 μl of detection antibody solution. Samples were then washed and suspended in 100 μl of sheath fluid. Samples were then run on MAGPIX with Xponent software. The median fluorescent intensity data were analyzed using a five-parameter logistic or spline curve-fitting method for calculating analyte concentrations in samples. Specific pTau ser396 (KHB7031; Invitrogen), aggregated Aβ (KHB3491; Thermo Fisher Scientific), and Aβ42 (KHB3442; Invitrogen) were performed according to manufacturer’s protocol on tissue soluble extracts from brain lysates in 1XSTEN buffer.

[2] = tested on: IBA1+ microglia of TgAPP mice; experiment: IBA1 staining and microglial morphological analysis (Imaris); format: in vivo, mouse; conditions: BK40143 5 mg/kg, BK40197 45 mg/kg, vs DMSO
Description: as §5
63x z-stack images (0.19 μm intervals) of IBA1 stained microglia from treated and untreated mice were collected on a Zeiss LSM confocal microscope. 3D images were then analyzed using the “surfaces” plug-in in Imaris 10.0 to ascertain cell-surface area. Individual microglial surface areas were calculated in the advanced statistics tab of Imaris.

Row | Structure (SMILES) | inhibition at 10 µM (KIT) [%] | remaining binding at 10 µM (KIT) [%] | inhibition at 10 µM (KIT (V559D)) [%] | remaining binding at 10 µM (KIT (V559D)) [%] | inhibition at 10 µM (LCK) [%] | remaining binding at 10 µM (LCK) [%] | inhibition at 10 µM (FYN) [%] | remaining binding at 10 µM (FYN) [%] | inhibition at 10 µM (PIP5K1A) [%] | remaining binding at 10 µM (PIP5K1A) [%] | inhibition at 10 µM (IRAK1) [%] | remaining binding at 10 µM (IRAK1) [%] | amyloid concentrations in dentate gyrus (6E10 staining) [1] | pTau (396) concentration in brain lysate (ELISA) (pTau) | microglial activation (IBA1 staining) [2] | surface area of microglia (Imaris) [2]
1 | Cc1cccc(-c2cc3nccc(N4CCOCC4)c3s2)c1 [BK40197] | 99.7 | 0.3 | 99.7 | 0.35 | 9 | 91 | 44 | 56 | 94.9 | 5.1 | 94.7 | 5.3 | robustly decreased amyloid concentrations in the dentate gyrus of the hippocampus | significantly reduced Aβ and pTau (396) concentrations | significant reduction in microglial activation | significantly reduced surface area of microglia
2 | Cc1cccc(-c2cc3nccc(Nc4ccccc4)c3s2)c1 [BK40143] | 100 | 0 | 99.8 | 0.25 | 92.9 | 7.1 | 90 | 10 | 68 | 32 | 54 | 46 | robustly decreased amyloid concentrations in the dentate gyrus of the hippocampus | significantly reduced Aβ and pTau (396) concentrations | significant reduction in microglial activation | significantly reduced surface area of microglia
